The values that follow come from paper PMC11335206, “Exploring oak processionary caterpillar induced lepidopterism (part 2): ex vivo bio-assays unmask the role of TRPV1” (Cellular and Molecular Life Sciences: CMLS, 2024).

Positions of bridges follow the written chain, without caps; N, C: chain ends. No end group written: not given here.

The subject of one data set is hTRPA1. Nature of the data set: TEVC electrophysiology on TRPA1 expressing oocytes. Particulars: 1 µM A967079; 50 µM mustard oil; holding −90 mV; n ≥ 3. Type of data set: cell-based, human.
Another data set has as its system hB2R. The experiment in a line: TEVC on B2R expressing oocytes. Particulars: 1 µM bradykinin; ramp −120 to +70 mV from −20 mV. Type of data set: cell-based, human.
The conditions of data set [1]: ref [28], cited from earlier work.
Data set [2] deals with individuals with atopic dermatitis. The following applies: topical, phase III, ref [36]; cited from earlier work. An excerpt: The results are consistent with the discoveries presented by Yao et al. (2019) regarding Latoia consocia, a caterpillar indigenous to South-West China. […] Despite substantial investments in the quest for TRPV1 antagonists, yet no antagonist is available on the market. Presently, a ...

A further data set concerns hH4R. Nature of the data set: TEVC on H4R-GIRK1/GIRK2-RGS4 oocytes. It is filed as cell-based, human.
Another data set has as its target hTRPV1 (Homo sapiens, UniProt Q8NER1). Nature of the data set: TEVC electrophysiology on TRPV1 expressing oocytes. Type of data set: cell-based. An excerpt: We used Xenopus laevis oocytes as a heterologous expression system in electrophysiological experiments to express ligand-gated and voltage-gated ion channels. Molecular biology techniques (subcloning, transformation, linearization and transcription) were used to make RNA encoding: (1) transient receptor potential channel (hTRPV1 and hTRPA1), (2) histamine receptors (hH1R and hH4R), (3) bradykinin receptor (hB2R), (4) nicotinic acetylcholine receptor (adult muscle type hα1β1δε nAChR and neuronal hα7 nAChR), (5) acid-sensing ion channel (rASIC1a), (6) voltage-gated sodium channels (rNav1.1, rNav1.2, rNav1.3, rNav1.4, mNav1.6 and hNav1.8) and their auxiliary subunits rβ1 and hβ1 and (7) potassium channels (hKv1.1, hKv1.2, hKv1.3, hKv1.4, hKv1.5, hKv1.6, hKv3.1, hKv10.1, mGIRK1, mGIRK2 and mIRK1). Plasmids corresponding to each channel or receptor underwent linearization using specific restriction enzymes and subsequent transcription with the T3, T7, or SP6 mMESSAGE mMACHINE transcription kit (Ambion, USA). Depending on the channel type, defolliculated oocytes were injected with 10–50 nL of cRNA at a concentration of 1 ng/nL using a micro-injector (Nanoject II; Drummond Scientific Company, USA). Electrophysiological experiments were conducted following cRNA injection, with an incubation period of 1–5 days at 16 °C in ND96 buffer.

In a further data set the test system is hH1R. It is filed as cell-based, human.
The test system of data set [3] is TRPV1. Particulars: HEK293 cells, ref [44] Ahern et al. (2005), cited from earlier work. An excerpt: (§1) Putrescine is a small aliphatic polyamine synthesized by ornithine decarboxylase (ODC) and found in the venom of other animals. Under physiological conditions, putrescine undergoes complete protonation. This property enables putrescine to interact with negatively charged macromolecules, such as DNA, RNA, ATP, phospholipids, or proteins. As a result, it plays a significant role in v ...

Data set [4] concerns histamine-N-methyltransferase. Particulars: ref [47]; cited from earlier work.
Text: as §1

In a further data set the test system is rat paw. The following applies: 10 µmol/paw, subcutaneous injection, ref [46]; cited from earlier work.
Text: as §1

For data set [5], the system named is TRPV1. Set-up: method as in earlier work. The following applies: Latoia consocia; ref [35] Yao et al. (2019); cited from earlier work.

Sequence of hTRPV1 (Q8NER1 whole entry): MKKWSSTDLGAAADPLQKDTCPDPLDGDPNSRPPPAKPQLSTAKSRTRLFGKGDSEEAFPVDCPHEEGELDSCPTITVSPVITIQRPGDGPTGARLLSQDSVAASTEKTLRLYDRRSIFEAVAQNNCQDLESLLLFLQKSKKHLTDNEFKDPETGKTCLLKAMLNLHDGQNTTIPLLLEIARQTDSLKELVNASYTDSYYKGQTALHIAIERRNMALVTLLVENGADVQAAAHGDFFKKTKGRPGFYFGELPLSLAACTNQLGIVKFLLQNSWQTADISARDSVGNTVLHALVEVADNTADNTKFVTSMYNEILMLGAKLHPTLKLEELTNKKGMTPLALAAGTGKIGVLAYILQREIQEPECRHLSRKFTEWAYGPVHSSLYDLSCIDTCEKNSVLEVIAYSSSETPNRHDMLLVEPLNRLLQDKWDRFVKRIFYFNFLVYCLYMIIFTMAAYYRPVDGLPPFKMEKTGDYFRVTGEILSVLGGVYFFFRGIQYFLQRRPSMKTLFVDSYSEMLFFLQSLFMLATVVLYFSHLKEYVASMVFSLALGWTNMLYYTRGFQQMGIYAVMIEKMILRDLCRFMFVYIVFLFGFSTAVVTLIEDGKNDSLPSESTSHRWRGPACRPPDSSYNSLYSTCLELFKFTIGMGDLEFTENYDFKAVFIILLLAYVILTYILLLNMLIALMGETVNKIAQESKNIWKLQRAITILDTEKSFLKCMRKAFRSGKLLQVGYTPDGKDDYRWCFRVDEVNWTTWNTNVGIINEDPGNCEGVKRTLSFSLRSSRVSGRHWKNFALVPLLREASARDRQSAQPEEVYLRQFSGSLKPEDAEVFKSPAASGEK
Method for hB2R: (§2) We used Xenopus laevis oocytes as a heterologous expression system in electrophysiological experiments to express ligand-gated and voltage-gated ion channels. […] Plasmids corresponding to each channel or receptor underwent linearization using specific restriction enzymes and subsequent transcription with the T3, T7, or SP6 mMESSAGE mMACHINE transcription kit (Ambion, USA). Depending on the channel type, defolliculated oocytes were injected with 10–50 nL of cRNA at a concentration of 1 ng/nL using a micro-injector (Nanoject II; Drummond Scientific Company, USA). Electrophysiological experiments were conducted following cRNA injection, with an incubation period of 1–5 days at 16 °C in ND96 buffer.
(§3) A two-electrode voltage clamp (TEVC) system utilizing a GeneClamp 500 amplifier (Molecular Devices, Downingtown, PA, USA) was under the control of a pClamp data acquisition system (Axon Instruments, USA), and pClamp Clampex 10.4 software (Axon Instruments®, USA). This setup was employed to measure currents across the cell membrane. The whole-cell currents from the oocytes were recorded at room temperature (18–22 °C). […]
(§4) The H1R and B2R couples with Gαq/11 proteins, initiating the release of Ca^2+ from the intracellular stores. This rise in intracellular Ca^2+ will activate the Ca^2+-activated Cl^− channels, serving as a sensitive readout.
Method for hH1R: as §2, §3, §4
Method for hH4R: as §2
A two-electrode voltage clamp (TEVC) system utilizing a GeneClamp 500 amplifier (Molecular Devices, Downingtown, PA, USA) was under the control of a pClamp data acquisition system (Axon Instruments, USA), and pClamp Clampex 10.4 software (Axon Instruments®, USA). This setup was employed to measure currents across the cell membrane. The whole-cell currents from the oocytes were recorded at room temperature (18–22 °C). Two micro-electrodes, comprising voltage and current electrodes, were crafted from borosilicate glass capillaries (1.14 mm outside diameter, 0.7 mm inside diameter), pulled using a microelectrode puller, PUL-1 (World Precision Instruments, USA). […]
Method for hTRPA1: as §2, §3
TRPV1 and TRPA1 currents were continuously monitored in a perfusing ND96 solution, following a protocol at −90 mV for 400 s. […]

Turning to `CCC(=N\O)/C(C)=C/c1ccc(F)cc1` [A967079], in the data set with hTRPA1, the “block of mustard oil effect on TRPA1” value was “is blocked”.

Regarding bradykinin, the “B2R conductance by agonist” value in the data set on hB2R is “evoked a change of conductance”.

As to `CC(c1cc2ccccc2s1)N(O)C(N)=O` (stereo not drawn) [Zileuton], the “suppression of pain and edema induced by secapin-2” value in data set [1] (5-lipoxygenase blocker, secapin-2 injection) was “suppress pain and edema responses”.

For `CCCc1nc(C(F)(F)F)ccc1/C=C/C(=O)N[C@H](C)c1cc(F)c(NS(C)(=O)=O)c(F)c1` [Asivatrep], in [2], the clinical efficacy result is “encouraging results” and the safety profile entry was “a favorable safety profile”.

With `CN1CCN(C(=O)c2cc3cc(Cl)ccc3[nH]2)CC1` [JNJ 7777120], the “block of histamine effect on H4R” value in the data set on hH4R was “The effect of histamine (blue) was blocked”.

For the compound `COc1ccc2c(c1)c(CC(=O)O)c(C)n2C(=O)c1ccc(Cl)cc1` [indomethacin], the “reduction of secapin-2 edema formation and pain sensation” value in [1] (nonspecific antagonist of cyclooxygenase) was “did not show any reducing effects on edema formation and pain sensation”.

Consider “DHETDLDDSNVPRIGRHIIDAPKRGCPEGYRKDHQGKCREVL (disulfide 26-38) [TPTX1-Tp1]”, for which the “effect on TRPV1, peptide alone” value at hTRPV1 (1 µM TPTX1-Tp1 (Fig. 4B), no capsaicin, ramp −120 to +70 mV from −20 mV, ND96) was “does not have an effect on TRPV1 injected oocytes”. The “TRPV1 current with capsaicin” value on hTRPV1 (TPTX1-Tp1 combined with 0.1 µM capsaicin, ramp −120 to +70 mV from −20 mV, ND96) is given as “induces an increase in the current”.

As to `NCCc1c[nH]cn1` [histamine], in the data set with hH1R, the “H1R current by agonist” value is reported as “a current increase”.

For `NCCCCN` [putrescine], in the data set with TRPV1 [3] (5 mM putrescine alone), the “TRPV1 activity, putrescine alone” value was “did not induce a detectable TRPV1 activity”. Moreover, in the data set with TRPV1 [3] (5 mM putrescine with 30 nM capsaicin), the “enhancement of capsaicin-evoked TRPV1 current” value is “remarkably intensified the current evoked by 30 nM capsaicin”. Further, in data set [4], the histamine-N-methyltransferase activity entry is “inhibiting histamine-N-methyltransferase activity”. Besides, in the data set with rat paw, the “duration of sustained edema” value is listed as 6 h and the mechanical allodynia entry is “induction of mechanical allodynia”.

With `COc1cc(CNC(=O)CCCC/C=C/C(C)C)ccc1O` [capsaicin], the “TRPV1 current by agonist” value on hTRPV1 was “a current increase”.

For `Oc1cc2c(cc1O)CN(C(=S)NCCc1ccc(Cl)cc1)CCC2` [capsazepine], the “block of venom extract-induced TRPV1 current increase” value on hTRPV1 (10 µM capsazepine, 0.4 µg/µL extract + 1 µM capsaicin, holding −90 mV, n ≥ 3) is “the current increase by whole venom setae extract disappeared”. Also, the “reduction of caterpillar-induced pain” value with TRPV1 [5] is “a notable reduction”.
